Measured values: patent US7972815B2, “Method of producing sugar chain using human G4 polypeptide” (Kyowa Hakko Kirin Co., Ltd., priority 1999, dated 2011)
Where two headings read alike, the source gives them in different places.

Tests used:
[1] = biological target: T1, β1,3-N-acetylglucosaminyl transferase (G4) (Homo sapiens, UniProt Q9Y2A9, R328H); assay: Substrate specificity of G4 with pyridylaminated oligosaccharides; assay type: biochemical; settings: pyridylaminated substrate 50 μmol/l, 37° C., 14.5 hours, activity on LNnT defined as 100%
T1 construct: made in house; host or cells: Sf21 insect cells infected with recombinant baculovirus from pVL1393-F2G4
T1 sequence (Q9Y2A9 38-372 R328H): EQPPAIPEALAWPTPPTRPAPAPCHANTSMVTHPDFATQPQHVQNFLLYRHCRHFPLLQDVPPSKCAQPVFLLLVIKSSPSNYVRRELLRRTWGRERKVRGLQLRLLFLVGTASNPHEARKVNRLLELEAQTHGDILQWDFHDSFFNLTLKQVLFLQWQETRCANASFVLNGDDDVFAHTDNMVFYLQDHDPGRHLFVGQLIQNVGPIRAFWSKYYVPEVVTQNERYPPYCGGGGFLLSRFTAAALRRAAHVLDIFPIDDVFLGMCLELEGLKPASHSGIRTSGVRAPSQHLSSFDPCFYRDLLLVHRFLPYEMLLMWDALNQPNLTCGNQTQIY
Procedure: Examination on the substrate specificity of a β1,3-N-acetylglucosaminyl transferase (G4) was carried out by using the FLAG peptide-fused G4 polypeptide produced as a secreted form in Example 10.
(§1) The method shown in Example 8 was used as the activity measuring method. Specifically, after the reaction at 37° C. for 14.5 hours in 30 μl of an assay solution [200 mmol/l of MOPS (pH 7.5), 20 mmol/l of UDP-GlcNAc (SIGMA), 20 mmol/l of MnCl2, 50 μmol/l of pyridylaminated sugar chain substrate and 15 μl of the above eluate], products were detected by HPLC. As substrates, LNnT, lacto-N-tetraose (Galβ1-3GlcNAcβ1-3Galβ1-4Glc, hereinafter referred to as “LNT”), lacto-N-fucopentaose II (Galβ1-3(Fucα1-4)GlcNAcβ1-3Galβ1-4Glc, hereinafter referred to as “LNFP-II”), lacto-N-fucopentaose III (Galβ1-4(Fucα1-3)GlcNAcβ1-3Galβ1-4Glc, hereinafter referred to as “LNFP-III”), lacto-N-fucopentaose V (Galβ1-3GlcNAcβ1-3Galβ1-4(Fucα1-3)Glc, hereinafter referred to as “LNFP-V”) and lacto-N-difucohexaose II (Galβ1-3(Fucα1-4)GlcNAcβ1-3Galβ1-4(Fucα1-3)Glc, hereinafter referred to as “LNDFH-II”) (all manufactured by Oxford Glycosystems) were used after fluorescently labeling them with aminopyridine. Fluorescence labeling of these substrates were carried out in accordance with the usual method [Agric. Biol. Chem., 54, 2169 (1990)].
(§2) For each substrate, the reaction was carried using the assay solution with or without UDP-GlcNAc (sugar donor), and then HPLC was carried out and peaks appeared only in the assay solution containing UDP-GlcNAc were defined as products.
(§3) The assay solution after completion of the reaction was treated at 100° C. for 5 minutes and then centrifuged at 10,000×g for 5 minutes, and a portion (5 μl) of the thus obtained supernatant was applied to HPLC.
(§4) The HPLC was carried out by using TSK-gel ODS-80Ts column (4.6×300 mm; Tosoh); 0.02 mol/l ammonium acetate buffer (pH 4.0) was used as the eluate at an elution temperature of 50° C. and at a flow rate of 0.5 ml/min.
(§5) Products were detected by using a fluorescence spectrum photometer FP-920 (JASCO Corporation) (excitation wavelength 320 nm, radiation wavelength 400 nm).

[2] = biological target: T2, β1,3-N-acetylglucosaminyl transferase (G3) (Homo sapiens, UniProt Q9NY97); assay: Substrate specificity of G3 with pyridylaminated oligosaccharides; assay type: biochemical; settings: pyridylaminated substrate, 37° C., 2 hours, activity on LNnT defined as 100%
T2 construct: made in house; host or cells: Sf21 insect cells infected with recombinant baculovirus from pVL1393-F2G3
T2 sequence (Q9NY97 31-397): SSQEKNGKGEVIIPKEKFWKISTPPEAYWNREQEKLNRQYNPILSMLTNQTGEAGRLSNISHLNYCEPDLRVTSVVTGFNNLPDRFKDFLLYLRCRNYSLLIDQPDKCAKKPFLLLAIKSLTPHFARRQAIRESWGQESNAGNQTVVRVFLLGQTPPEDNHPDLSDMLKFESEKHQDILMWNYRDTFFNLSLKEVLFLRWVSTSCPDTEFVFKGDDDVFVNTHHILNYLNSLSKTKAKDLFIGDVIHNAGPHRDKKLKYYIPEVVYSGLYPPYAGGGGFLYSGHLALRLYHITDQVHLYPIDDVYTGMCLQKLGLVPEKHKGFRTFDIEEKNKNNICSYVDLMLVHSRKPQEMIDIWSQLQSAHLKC
Procedure: as §1, §2, §3, §4, §5
Substrate specificity of a β1,3-N-acetylglucosaminyl transferase (G3) was examined using the FLAG peptide-fused G3 polypeptide purified in Example 14.
Substrate specificity of the FLAG peptide-fused G3 polypeptide was examined by the method shown in Example 11(1). The reaction was carried out at 37° C. for 2 hours.

[3] = biological target: T3, β1,3-N-acetylglucosaminyl transferase (G7) (Homo sapiens, UniProt Q9C0J1); assay: Substrate specificity of G7 with pyridylaminated oligosaccharides; assay type: biochemical; settings: pyridylaminated substrate, 37° C., 16 hours, activity for LNnT defined as 100%
T3 construct: made in house; host or cells: Sf21 insect cells infected with recombinant baculovirus from pVL1393-F2G7
T3 sequence (Q9C0J1 56-378): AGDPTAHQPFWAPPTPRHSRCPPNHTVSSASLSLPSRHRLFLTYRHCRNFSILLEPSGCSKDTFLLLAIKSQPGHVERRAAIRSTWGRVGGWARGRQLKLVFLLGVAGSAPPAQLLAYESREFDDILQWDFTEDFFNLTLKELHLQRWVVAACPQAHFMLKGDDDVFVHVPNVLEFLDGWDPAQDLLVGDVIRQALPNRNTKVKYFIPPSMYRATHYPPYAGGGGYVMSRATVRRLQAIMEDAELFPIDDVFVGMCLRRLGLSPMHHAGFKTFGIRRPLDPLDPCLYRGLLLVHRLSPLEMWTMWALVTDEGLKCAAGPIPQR
Procedure: as §1, §2, §3, §4, §5
Examination of the substrate specificity of a β1,3-N-acetylglucosaminyl transferase (G7) was carried out using the FLAG peptide-fused G7 polypeptide purified in Example 17.
Substrate specificity of the FLAG peptide-fused G7 polypeptide was examined by the method shown in Example 11(1). The reaction was carried out at 37° C. for 16 hours.

[4] = biological target: T1, β1,3-N-acetylglucosaminyl transferase (G4); assay: Substrate specificity of G4 with unlabeled oligosaccharides (HPAE/PAD); assay type: biochemical; settings: unlabeled substrate, 37° C., 16 hours, activity on LNnT defined as 100%
Procedure: (§6) The reaction using the glycosyltransferase was carried out as follows. The reaction was carried out at 37° C. for 16 hours in 40 μl of an assay solution [50 mmol/l MOPS (pH 7.5), 5 mmol/l UDP-GlcNAc (SIGMA), 5 mmol/l MnCl2, […] and 10 μl of the above eluate]. Next, the reaction solution was treated at 100° C. for 5 minutes and then centrifuged at 10,000×g for 20 minutes to obtain the supernatant, and a portion thereof was analyzed using HPAE/PAD (High Performance Anion Pulsed Amperometoric Detection; manufactured by DIONEX). The specific method was carried out in the usual way [Anal. Biochem., 189, 151 (1990), J. Biol. Chem., 273, 433 (1998)].
(§7) As substrates, the following unlabeled oligosaccharides were used: lactose (Galβ1-4Glc), N-acetyllactosamine (Galβ1-4GlcNAc, hereinafter referred to as “LacNAc” in some cases), LNnT, LNT and lacto-N-neohexaose (Galβ1-4GlcNACβ1-3Galβ1-4GlcNAcβ1-3Galβ1-4Glc, hereinafter referred to as “LNnH”).
as §2
(§8) In identifying the product, coincidence of its elution time with that of a standard sugar chain was used as the index. As the standard sugar chains, GlcNAcβ1-3Galβ1-4Glc, GlcNAcβ1-3Galβ1-4GlcNAc and GlcNAcβ1-3Galβ1-4GlcNAcβ1-3Galβ1-4Glc were used.

[5] = biological target: T2, β1,3-N-acetylglucosaminyl transferase (G3); assay: Substrate specificity of G3 with unlabeled oligosaccharides; assay type: biochemical; settings: unlabeled substrate, 37° C., 2 hours, activity for LNnT defined as 100%
Procedure: as §6, §7, §2, §8
Substrate specificity of the FLAG peptide-fused G3 polypeptide was examined by the method shown in Example 11(2). The enzyme reaction was carried out at 37° C. for 2 hours.

[6] = biological target: T3, β1,3-N-acetylglucosaminyl transferase (G7); assay: Substrate specificity of G7 with unlabeled oligosaccharides; assay type: biochemical; settings: unlabeled substrate, 37° C., 15.5 hours, activity for LNnT defined as 100%
Procedure: as §6, §7, §2, §8
Substrate specificity of the FLAG peptide-fused G7 polypeptide was examined using the method shown in Example 11(2). The enzyme reaction was carried out at 37° C. for 15.5 hours.

β3GnT = biological target: T4, β3GnT (Homo sapiens, UniProt Q9NY97); settings: reported values, Proc. Natl. Acad. Sci. USA, 96, 406 (1999), cited from earlier work
T4 sequence (Q9NY97 1-397): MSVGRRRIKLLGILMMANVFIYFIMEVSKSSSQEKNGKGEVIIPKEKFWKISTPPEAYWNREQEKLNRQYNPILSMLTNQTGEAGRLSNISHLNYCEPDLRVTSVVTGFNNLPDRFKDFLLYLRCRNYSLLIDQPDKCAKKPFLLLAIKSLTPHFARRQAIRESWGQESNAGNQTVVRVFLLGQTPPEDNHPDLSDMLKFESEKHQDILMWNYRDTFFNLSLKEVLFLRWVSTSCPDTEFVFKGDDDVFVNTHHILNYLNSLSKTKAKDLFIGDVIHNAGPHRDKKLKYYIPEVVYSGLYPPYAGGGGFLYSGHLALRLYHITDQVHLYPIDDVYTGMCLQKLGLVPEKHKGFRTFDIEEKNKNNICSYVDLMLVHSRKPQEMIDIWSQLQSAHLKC

Compound	Relative activity (%) [1]	Relative activity (%) [2]	Relative activity (%) [3]	Relative activity (%) [4]	Relative activity (%) G3 [5]	Relative activity (%) G7 [6]	Relative activity (%) β3GnT (β3GnT; Table 4)	Relative activity (%) β3GnT (β3GnT; Table 6)
CC(=O)N[C@H]1[C@H](O[C@H]2[C@@H](O)[C@@H](CO)O[C@@H](O[C@@H]([C@H](O[C@@H]3O[C@@H](C)[C@@H](O)[C@@H](O)[C@@H]3O)[C@@H](O)C=O)[C@H](O)CO)[C@@H]2O)O[C@H](CO)[C@@H](O[C@@H]2O[C@@H](C)[C@@H](O)[C@@H](O)[C@@H]2O)[C@@H]1O[C@@H]1O[C@H](CO)[C@H](O)[C@H](O)[C@H]1O [LNDFH-II, lacto-N-difucohexaose II]	0%	0%	0%	–	–	–	–	–
CC(=O)N[C@H]1[C@H](O[C@H]2[C@@H](O)[C@@H](CO)O[C@@H](O[C@@H]([C@H](O)[C@@H](O)C=O)[C@H](O)CO)[C@@H]2O)O[C@H](CO)[C@@H](O[C@@H]2O[C@@H](C)[C@@H](O)[C@@H](O)[C@@H]2O)[C@@H]1O[C@@H]1O[C@H](CO)[C@H](O)[C@H](O)[C@H]1O [LNFP-II, lacto-N-fucopentaose II]	0%	0%	0%	–	–	–	–	–
lacto-N-fucopentaose III [LNFP-III]	4.7%	0%	7.4%	–	–	–	–	–

Second part, led by results:

Relative activity (%) [1]	Relative activity (%) [2]	Relative activity (%) [3]	Relative activity (%) [4]	Relative activity (%) G3 [5]	Relative activity (%) G7 [6]	Compound	Relative activity (%) β3GnT (β3GnT; Table 4)	Relative activity (%) β3GnT (β3GnT; Table 6)
–	–	–	0%	21%	8.5%	CC(=O)N[C@H]1C(O)O[C@H](CO)[C@@H](O[C@@H]2O[C@H](CO)[C@H](O)[C@H](O)[C@H]2O)[C@@H]1O (stereo partly shown) [LacNAc, N-acetyllactosamine]	95.5%	95.5%
–	–	–	235%	128%	32.6%	OC[C@H]1O[C@@H](O[C@H]2[C@H](O)[C@@H](O)C(O)O[C@@H]2CO)[C@H](O)[C@@H](O)[C@H]1O (stereo partly shown) [Lactose, lactose]	67.1%	67.1%
65.1%	30.8%	8.1%	–	–	–	lacto-N-fucopentaose V [LNFP-V]	–	–
–	–	–	45%	132%	0.05%	lacto-N-neohexaose [LNnH]	–	–
